In patent publication US9827224B2, “Methods and compositions for ameliorating pancreatic cancer” (University of South Alabama, priority 2010, dated 2017):

Tests used:
Akt = test: Western blot of Akt activation (total and phospho-forms) in Panc1 and MiaPaCa cells; type: cell-based, Human
Protocol: (§1) Cells were processed for protein extraction and western blotting using standard procedures. Briefly, cells were washed twice with PBS and scraped into NP-40 lysis buffer containing protease and phosphotase inhibitors. Cell lysates were passed through a needle syringe to facilitate the disruption of the cell membranes and were centrifuged at 14,000 rpm for 20 min at 4° C., and supematants were collected. Proteins (10-50 μg) were resolved by electrophoresis on 10% SDS-PAGE, transferred onto polyvinylidene difluoride (PVDF) membrane and subjected to standard immunodetection procedure using specific antibodies: AKT, pAKT ERK1/2, pERK1/2, Bcl-2, Bcl-xL, FAk, pFAk, Survivin, β-catenin and BAD (1:1000), pBAD (1:500), Notch-1 (1:200) and β-actin (1:20000). All secondary antibodies were used at 1:2500 dilutions. Blots were processed with ECL Plus Western Blotting detection kit and the signal detected using an LAS-3000 image analyzer (Fuji Photo Film Co., Tokyo, Japan).

Panc1 and MiaPaCa cells [1] = test: Cell viability assay (Vybrant MTT cell proliferation assay), results stated for both cell lines together; type: cell-based, Human; details: for effect on CXCL12-induced chemo-resistance (gemcitabine): pre-treatment 1 h (AMD3100 5 μg/mL, LY294002 20 μM, PD98059 25 μM), then gemcitabine + CXCL12
Protocol: (§2) After 72 h of treatment, cell growth was determined by using Vybrant MIT cell proliferation assay. Growth was calculated as percent (%)=[{(A/B)−1}×100], where A and B are the absorbance of treatment and control cells, respectively. To examine the effect of CXCR4 targeting, cells were pre-incubated with small molecule CXCR4 antagonist, AMD3100 (5 μg/mL), for 1 h. To delineate the role of Akt and ERK pathways, cells were pretreated for 1 h with LY294002 (20 μM) and PD98059 (25 μM), respectively.

[2] = human volunteers, intra-venous injection; cited from earlier work
ERK = test: Western blot of ERK activation (total and phospho-forms) in Panc1 and MiaPaCa cells; type: cell-based, Human; details: for effect on CXCL12-induced activation of ERK pathway: pre-treatment 1 h (AMD3100, LY294002 20 μM, PD98059 25 μM), 15 min post-CXCL12, Panc1 and MiaPaCa
Protocol: as §1

MiaPaCa cells = test: Cell viability assay (MTT), gemcitabine cytotoxicity; type: cell-based, Human; details: 5.0 μM gemcitabine, 72 h, serum-containing media, compared to untreated cells
Protocol: as §2

Panc1 cells = test: as above; type: cell-based, Human; details: 5.0 μM gemcitabine, 72 h, serum-containing media, compared to untreated cells
Protocol: as §2

activated caspases = test: Measurement of apoptosis in situ (CaspACE FITC-VAD-FMK); type: cell-based, Human; details: gemcitabine 5 μM + CXCL12 100 ng/mL, compared to gemcitabine alone
Protocol: Apoptosis was detected by staining the cells with CaspACE FITC-VAD-FMK solution in PBS for 2 h at 37° C. CaspACE™ FITC-VAD-FMK In Situ Marker is a fluorescent analog of the pan-caspase inhibitor Z-VAD-FMK (carbobenzoxy-valyl-alanylaspartyl-[O-methyl]-fluoromethylketone), which irreversibly binds to activated caspases and is a surrogate for caspase activity in situ. Following staining with CaspACE FITC-V AD-FMK, cells were fixed with 4% paraformaldehydede at room temperature and washed with PBS. The bound fluorescent marker was detected under a Nikon Eclipse TE2000-U fluorescent microscope (Nikon Instruments Inc, Melville, N.Y.).

[3] = test system: Bcl-2, Bcl-xL, Notch-1 and survivin; test: Western blot of survival protein expression in pancreatic cancer cells; type: cell-based, Human; details: CXCL12-treated pancreatic cancer cells
Protocol: as §1

NF-κB = NF-κB transcriptional activity assay (luciferase reporter); type: cell-based, Human; details: 24 h
Protocol: To measure the LEF/TCF and NF-κB transcriptional activity, pancreatic cancer cells (1×10^5) were seeded in 12-well plates. After 24 h incubation, cells were transiently transfected with the luciferase promoter-reporter constructs (TOP flash, FOPflash or pGL4.32[luc2P/NF-kB-RE/Hygro]. TOPflash reporter plasmid contains three copies of the Tcf/Lef sites upstream of a thymidine kinase (TK) promoter and the Firefly luciferase gene, while in FOPflash, Tcf/Lef sites are mutated and therefore it serves as a control for measuring nonspecific activation of the reporter. Cells were also co-transfected with a reporter plasmid, containing Renilla reniformis luciferase gene downstream of the TK promoter, to control for the transfection efficiency. All transfections were performed using FuGene as a transfection reagent according to the manufacturers' recommendations. Cells were treated with CXCL12 (100 ng) 24 h post TOPflash/FOPflash or pGLA.32[luc2P/NF-kB-RE/Hygro] transfection, and after the next 24 h, total protein was isolated in passive lysis buffer. Luciferase activity was measured using the Dual Luciferase Assay System. All experiments were done in triplicate and relative luciferase activity reported as the fold induction after normalization for transfection efficiency.

SHH = test: CXCL12-induced sonic hedgehog (SHH) expression by Q-RT-PCR and Western blot; type: cell-based, Human; details: CXCL12, 0-48 hours, Panc1 and MiaPaCa
Protocol: Panc1 and MiaPaCa cells were treated with CXCL12 and expression of SHH was measured by Q-RT-PCR and Western blot analysis.
Q-RT-PCR: Pancreatic cancer cells (Panc1 and MiaPaCa) were treated with CXCL12 for different time point (0, 4, 8, 24, 48 hours) for Q-RT-PCR analysis. To confirm the induced expression of sonic hegedehog (SHH), reverse transcriptase based-PCR (RT-PCR) analysis was performed, using SHH-specific primers. Briefly, cDNA was synthesized from 5 μg total RNA using SuperScript™ II Reverse Transcriptase (Invitrogen) and oligo(dT) primer. Two micro liter of first strand cDNA (1:10 dilution) was amplified using the SHH specific and GAPDH specific primers control. Amplified products were resolved through a 1.5% agarose gel containing ethidium bromide and analyzed using an Alpha Imager gel documentation system (Alphalnnotech, San Leandro, Calif.).
Immunoblot analyses: NP-40 lysis buffer containing protease and phosphatase inhibitors (Roche Diagnostics. 50 μg protein was resolved by SDS-PAGE (8-12%). The primary antibodies were: anti-sonic hedgehog (SHH, 1:2000, rabbit monoclonal, Millipore. Secondary antibody (Santa Cruz Biotechnology) was horseradish peroxidase (HRP)-conjugated and was used a 1:2000 dilution. Bound immunocomplexes were detected using ECL Plus chemiluminescent detection reagent (GE Healthcare, Piscataway, N.J.).

Panc1 and MiaPaCa cells [4] = test: DNA fragmentation assay; type: cell-based, Human; details: gemcitabine 5 and 10 μM + CXCL12 100 ng/mL, 48 h, compared to gemcitabine alone
Protocol: Cells were washed twice with phosphate buffer saline (PBS) and DNA was extracted using DNAzol reagent. 2 μg of isolated DNA was resolved on 1.0% agarose gel containing ethidium-bromide (EtBr) and observed under a LAS-3000 image analyzer (Fuji Photo Film Co.).

BAD = test: Western blot of BAD phosphorylation in Panc1 and MiaPaCa cells; type: cell-based, Human; details: CXCL12-treated Panc1 and MiaPaCa
Protocol: as §1

FAK = test: Western blot of FAK activation in Panc1 and MiaPaCa cells; type: cell-based, Human; details: CXCL12 100 ng/mL, 5-30 min
Protocol: as §1

[5] = CXCL12 100 ng/mL, 5-30 min, Panc1 and MiaPaCa

## c1cc(CN2CCCNCCNCCCNCC2)ccc1CN1CCCNCCNCCCNCC1 [AMD3100, Plerixafor, reference compound]
Akt; pre-treatment 1 h (AMD3100 5 g/mL, LY294002 20 μM, PD98059 25 μM), 15 min post-CXCL12, Panc1 and MiaPaCa
  effect on CXCL12-induced activation of Akt pathway: inhibited
Panc1 and MiaPaCa cells [1]
  effect on CXCL12-induced chemo-resistance (gemcitabine): abolished
Panc1 and MiaPaCa cells [1]; pre-treatment 1 h, AMD3100 5 μg/mL, then CXCL12
  effect on CXCL12-induced growth promotion: abolished
[2]
  side effects: minimal side effects
ERK
  effect on CXCL12-induced activation of ERK pathway: inhibited

## COc1cccc(-c2cc(=O)c3ccccc3o2)c1N [PD98059, reference compound]
Panc1 and MiaPaCa cells [1]
  effect on CXCL12-induced chemo-resistance (gemcitabine): significant negative impact
ERK
  effect on CXCL12-induced activation of ERK pathway: specifically inhibited

## Nc1ccn([C@@H]2O[C@H](CO)[C@@H](O)C2(F)F)c(=O)n1 [gemcitabine]
MiaPaCa cells
  gemcitabine cytotoxicity: 50.7%
Panc1 cells
  gemcitabine cytotoxicity: 52.3%

## CXCL12: Recombinant human CXCL12, a ligand for CXCR4
Activated caspases
  activity of caspases: enhanced activity of caspases
Akt; [5]
  activation of Akt (phospho-form): significant activation
[3]
  expression of Bcl-2, Bcl-xL, Notch-1 and survivin proteins: significantly induced
Panc1 and MiaPaCa cells [1]; CXCL12 100 ng/mL, gemcitabine 0-10 μM, both cell lines, p<0.05
  resistance to gemcitabine-cytotoxicity: induced significant resistance
Panc1 and MiaPaCa cells [1]; CXCL12 100 ng/ml, absence of serum growth factors, range over MiaPaCa and Panc1
  induction of growth: 29-33%
Panc1 and MiaPaCa cells [1]; CXCL12 100 ng/ml, presence of serum growth factors, range over MiaPaCa and Panc1
  increase of growth: 11-13%
NF-κB; MiaPaCa, CXCL12-treated
  induction of transcriptional activity of NF-κB responsive promoter: 2.26 fold
NF-κB; Panc1, CXCL12-treated
  induction of transcriptional activity of NF-κB responsive promoter: 2.98 fold
SHH
  expression of SHH: induced expression of SHH
Panc1 and MiaPaCa cells [4]
  DNA fragmentation: reduced DNA fragmentation
BAD
  level of phospho-BAD: increased level of phospho-BAD
ERK; [5]
  activation of ERK (phospho-form): significant activation
FAK
  activation of FAK (phospho-form): significant activation
